# According to ChEMBL document CHEMBL4507280 (2021):
# Columns and labels:
# [1] = target: Mitogen-activated protein kinase 8 (Homo sapiens) (UniProt P45983); details: Compound concentration 1000.0 nM
# [2] = target: Insulin receptor-related protein (Homo sapiens) (UniProt P14616); details: Compound concentration 1000.0 nM
# [3] = target: Serine/threonine-protein kinase RIO1 (Homo sapiens) (UniProt Q9BRS2); details: Compound concentration 1000.0 nM
# [4] = target: Myosin-IIIa (Homo sapiens) (UniProt Q8NEV4); details: Compound concentration 1000.0 nM
# [5] = target: Histamine H3 receptor (Homo sapiens) (UniProt Q9Y5N1); details: Compound concentration 10.0 uM
# [6] = target: SRSF protein kinase 1 (Homo sapiens) (UniProt Q96SB4); details: Compound concentration 1000.0 nM
# [7] = target: Phosphatidylinositol 4-phosphate 5-kinase type-1 gamma (Homo sapiens) (UniProt O60331); details: Compound concentration 1000.0 nM
# [8] = target: Mitogen-activated protein kinase kinase kinase 15 (Homo sapiens) (UniProt Q6ZN16); details: Compound concentration 1000.0 nM
# [9] = target: Mitogen-activated protein kinase kinase kinase 13 (Homo sapiens) (UniProt O43283); details: Compound concentration 1000.0 nM
# [10] = target: Fibroblast growth factor receptor 3 (Homo sapiens) (UniProt P22607); details: Compound concentration 1000.0 nM
# [11] = target: Atypical kinase COQ8B, mitochondrial (Homo sapiens) (UniProt Q96D53); details: Compound concentration 1000.0 nM
# [12] = target: Cyclin-dependent kinase 11B (Homo sapiens) (UniProt P21127); details: Compound concentration 1000.0 nM
# [13] = target: Receptor tyrosine-protein kinase erbB-4 (Homo sapiens) (UniProt Q15303); details: Compound concentration 1000.0 nM
# [14] = test system: Receptor-type tyrosine-protein kinase FLT3 (Homo sapiens), P36888 [N841I]; details: Compound concentration 1000.0 nM
# [15] = target: Dual specificity protein kinase CLK1 (Homo sapiens) (UniProt P49759); details: Compound concentration 1000.0 nM
# [16] = test system: Tyrosine-protein kinase ABL1 (Homo sapiens), P00519 [H396P]; details: Compound concentration 1000.0 nM
# [17] = test system: Phosphatidylinositol 4,5-bisphosphate 3-kinase catalytic subunit alpha isoform (Homo sapiens), P42336 [Q546K]; details: Compound concentration 1000.0 nM
# [18] = target: Mitogen-activated protein kinase 4 (Homo sapiens) (UniProt P31152); details: Compound concentration 1000.0 nM
# [19] = target: Mitogen-activated protein kinase 1 (Homo sapiens) (UniProt P28482); details: Compound concentration 1000.0 nM
# [20] = target: Serine/threonine-protein kinase 32A (Homo sapiens) (UniProt Q8WU08); details: Compound concentration 1000.0 nM
# [21] = target: Angiopoietin-1 receptor (Homo sapiens) (UniProt Q02763); details: Compound concentration 1000.0 nM
# [22] = target: Mitogen-activated protein kinase kinase kinase 10 (Homo sapiens) (UniProt Q02779); details: Compound concentration 1000.0 nM
# [23] = target: Cyclin-dependent kinase 18 (Homo sapiens) (UniProt Q07002); details: Compound concentration 1000.0 nM
# [24] = target: Discoidin domain-containing receptor 2 (Homo sapiens) (UniProt Q16832); details: Compound concentration 1000.0 nM
# [25] = target: Cyclin-dependent kinase 3 (Homo sapiens) (UniProt Q00526); details: Compound concentration 1000.0 nM
# [26] = target: Casein kinase I isoform alpha (Homo sapiens) (UniProt P48729); details: Compound concentration 1000.0 nM
# [27] = target: Serine/threonine-protein kinase 36 (Homo sapiens) (UniProt Q9NRP7); details: Compound concentration 1000.0 nM
# [28] = target: Non-receptor tyrosine-protein kinase TYK2 (Homo sapiens) (UniProt P29597); details: Compound concentration 1000.0 nM
# [29] = target: Hormonally up-regulated neu tumor-associated kinase (Homo sapiens) (UniProt P57058); details: Compound concentration 1000.0 nM
# [30] = target: Serine/threonine-protein kinase N2 (Homo sapiens) (UniProt Q16513); details: Compound concentration 1000.0 nM
# [31] = target: Mitotic checkpoint serine/threonine-protein kinase BUB1 (Homo sapiens) (UniProt O43683); details: Compound concentration 1000.0 nM
# [32] = target: Focal adhesion kinase 1 (Homo sapiens) (UniProt Q05397); details: Compound concentration 1000.0 nM
# [33] = target: Sodium-dependent noradrenaline transporter (Homo sapiens) (UniProt P23975); details: Compound concentration 10.0 uM
# [34] = test system: Mast/stem cell growth factor receptor Kit (Homo sapiens), P10721 [V559D,V654A]; details: Compound concentration 1000.0 nM
# [35] = target: Serine/threonine-protein kinase ULK1 (Homo sapiens) (UniProt O75385); details: Compound concentration 1000.0 nM
# [36] = target: Cyclin-dependent kinase 8 (Homo sapiens) (UniProt P49336); details: Compound concentration 1000.0 nM
# [37] = target: Insulin receptor (Homo sapiens) (UniProt P06213); details: Compound concentration 1000.0 nM
# [38] = target: Dual specificity mitogen-activated protein kinase kinase 1 (Homo sapiens) (UniProt Q02750); details: Compound concentration 1000.0 nM
# [39] = test system: Mast/stem cell growth factor receptor Kit (Homo sapiens), P10721 [V559D]; details: Compound concentration 1000.0 nM
# [40] = target: 5-hydroxytryptamine receptor 6 (Homo sapiens) (UniProt P50406); details: Compound concentration 10.0 uM
# [41] = test system: Phosphatidylinositol 4,5-bisphosphate 3-kinase catalytic subunit alpha isoform (Homo sapiens), P42336 [E545A]; details: Compound concentration 1000.0 nM
# [42] = target: Serine/threonine-protein kinase Nek10 (Homo sapiens) (UniProt Q6ZWH5); details: Compound concentration 1000.0 nM
# [43] = test system: Phosphatidylinositol 4,5-bisphosphate 3-kinase catalytic subunit alpha isoform (Homo sapiens), P42336 [M1043I]; details: Compound concentration 1000.0 nM
# [44] = target: Fibroblast growth factor receptor 4 (Homo sapiens) (UniProt P22455); details: Compound concentration 1000.0 nM
# [45] = target: Tyrosine-protein kinase JAK2 (Homo sapiens) (UniProt O60674); details: Compound concentration 1000.0 nM
# Chain of Casein kinase I isoform alpha (Homo sapiens) (P48729 2-337 limits assumed): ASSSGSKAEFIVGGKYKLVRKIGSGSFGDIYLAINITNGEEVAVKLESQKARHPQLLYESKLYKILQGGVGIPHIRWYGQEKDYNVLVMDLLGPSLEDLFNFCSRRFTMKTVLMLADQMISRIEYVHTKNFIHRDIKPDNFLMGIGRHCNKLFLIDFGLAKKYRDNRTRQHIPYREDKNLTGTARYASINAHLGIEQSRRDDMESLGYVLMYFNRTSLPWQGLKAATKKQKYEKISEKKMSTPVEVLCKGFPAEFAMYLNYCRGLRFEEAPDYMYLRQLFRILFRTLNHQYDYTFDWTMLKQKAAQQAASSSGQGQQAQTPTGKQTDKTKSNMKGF
# Chain of Fibroblast growth factor receptor 4 (Homo sapiens) (P22455 22-802 limits assumed): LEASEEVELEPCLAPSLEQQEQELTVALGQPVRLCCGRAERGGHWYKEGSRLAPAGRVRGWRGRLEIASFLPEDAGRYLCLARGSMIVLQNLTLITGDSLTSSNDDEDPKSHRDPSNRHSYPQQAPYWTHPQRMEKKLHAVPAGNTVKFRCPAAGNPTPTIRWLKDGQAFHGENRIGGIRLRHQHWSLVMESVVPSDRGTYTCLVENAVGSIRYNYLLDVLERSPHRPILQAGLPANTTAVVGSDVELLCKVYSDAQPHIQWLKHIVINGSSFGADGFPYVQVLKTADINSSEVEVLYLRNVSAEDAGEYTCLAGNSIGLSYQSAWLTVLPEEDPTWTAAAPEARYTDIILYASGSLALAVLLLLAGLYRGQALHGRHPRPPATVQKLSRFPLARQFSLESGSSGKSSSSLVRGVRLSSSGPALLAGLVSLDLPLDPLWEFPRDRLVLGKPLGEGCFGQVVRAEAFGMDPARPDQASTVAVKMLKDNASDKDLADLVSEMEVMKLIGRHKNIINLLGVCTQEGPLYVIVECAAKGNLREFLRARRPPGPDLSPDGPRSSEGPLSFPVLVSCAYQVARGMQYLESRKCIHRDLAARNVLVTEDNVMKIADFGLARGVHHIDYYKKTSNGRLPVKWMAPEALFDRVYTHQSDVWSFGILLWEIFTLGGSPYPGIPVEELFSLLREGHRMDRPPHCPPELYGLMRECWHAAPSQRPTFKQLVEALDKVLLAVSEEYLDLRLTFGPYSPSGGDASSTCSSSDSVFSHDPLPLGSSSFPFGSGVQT
# Chain of SRSF protein kinase 1 (Homo sapiens) (Q96SB4 whole entry): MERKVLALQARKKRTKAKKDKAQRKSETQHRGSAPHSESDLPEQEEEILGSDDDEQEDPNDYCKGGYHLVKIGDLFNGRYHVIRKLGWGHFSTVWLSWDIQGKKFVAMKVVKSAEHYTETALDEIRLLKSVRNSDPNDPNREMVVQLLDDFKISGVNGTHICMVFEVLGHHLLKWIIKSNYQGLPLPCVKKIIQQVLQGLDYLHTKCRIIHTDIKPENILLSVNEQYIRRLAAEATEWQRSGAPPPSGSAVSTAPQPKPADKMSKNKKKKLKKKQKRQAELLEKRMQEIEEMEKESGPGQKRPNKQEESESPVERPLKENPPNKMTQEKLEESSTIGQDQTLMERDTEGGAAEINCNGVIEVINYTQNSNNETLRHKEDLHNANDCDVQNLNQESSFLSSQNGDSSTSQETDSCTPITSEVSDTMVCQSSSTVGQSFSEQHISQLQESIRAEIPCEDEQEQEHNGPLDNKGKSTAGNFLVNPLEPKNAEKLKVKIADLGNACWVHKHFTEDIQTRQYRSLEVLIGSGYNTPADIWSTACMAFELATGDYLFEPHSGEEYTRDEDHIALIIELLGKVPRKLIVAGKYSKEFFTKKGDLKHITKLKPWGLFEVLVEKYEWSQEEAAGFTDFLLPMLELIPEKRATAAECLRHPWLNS
# Chain of Atypical kinase COQ8B, mitochondrial (Homo sapiens) (Q96D53 whole entry): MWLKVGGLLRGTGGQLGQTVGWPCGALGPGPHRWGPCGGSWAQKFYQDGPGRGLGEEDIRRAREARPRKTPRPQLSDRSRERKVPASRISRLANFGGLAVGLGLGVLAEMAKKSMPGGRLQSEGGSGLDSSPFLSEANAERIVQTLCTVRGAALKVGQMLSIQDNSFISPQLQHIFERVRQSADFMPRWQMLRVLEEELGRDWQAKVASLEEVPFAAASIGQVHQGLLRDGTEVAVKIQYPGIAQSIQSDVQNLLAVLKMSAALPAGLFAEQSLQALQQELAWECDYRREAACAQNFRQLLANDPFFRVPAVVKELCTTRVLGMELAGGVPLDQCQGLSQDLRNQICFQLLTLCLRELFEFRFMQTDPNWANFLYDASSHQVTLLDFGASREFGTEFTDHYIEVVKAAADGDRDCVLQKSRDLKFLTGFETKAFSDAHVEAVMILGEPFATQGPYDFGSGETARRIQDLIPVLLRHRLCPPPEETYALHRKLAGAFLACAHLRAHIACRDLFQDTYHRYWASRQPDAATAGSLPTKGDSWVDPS
# Chain of Mitogen-activated protein kinase 1 (Homo sapiens) (P28482 whole entry): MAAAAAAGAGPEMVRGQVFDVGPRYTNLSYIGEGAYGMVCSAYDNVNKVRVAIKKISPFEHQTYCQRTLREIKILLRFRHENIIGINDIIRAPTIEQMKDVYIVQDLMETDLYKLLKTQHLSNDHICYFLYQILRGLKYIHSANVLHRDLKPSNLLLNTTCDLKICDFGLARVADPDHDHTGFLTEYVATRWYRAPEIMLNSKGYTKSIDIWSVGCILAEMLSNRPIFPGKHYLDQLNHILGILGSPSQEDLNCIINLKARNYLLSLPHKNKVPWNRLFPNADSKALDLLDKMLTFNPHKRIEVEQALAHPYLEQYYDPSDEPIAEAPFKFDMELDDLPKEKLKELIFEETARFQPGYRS
# Chain of Mitogen-activated protein kinase kinase kinase 10 (Homo sapiens) (Q02779 whole entry, looked up): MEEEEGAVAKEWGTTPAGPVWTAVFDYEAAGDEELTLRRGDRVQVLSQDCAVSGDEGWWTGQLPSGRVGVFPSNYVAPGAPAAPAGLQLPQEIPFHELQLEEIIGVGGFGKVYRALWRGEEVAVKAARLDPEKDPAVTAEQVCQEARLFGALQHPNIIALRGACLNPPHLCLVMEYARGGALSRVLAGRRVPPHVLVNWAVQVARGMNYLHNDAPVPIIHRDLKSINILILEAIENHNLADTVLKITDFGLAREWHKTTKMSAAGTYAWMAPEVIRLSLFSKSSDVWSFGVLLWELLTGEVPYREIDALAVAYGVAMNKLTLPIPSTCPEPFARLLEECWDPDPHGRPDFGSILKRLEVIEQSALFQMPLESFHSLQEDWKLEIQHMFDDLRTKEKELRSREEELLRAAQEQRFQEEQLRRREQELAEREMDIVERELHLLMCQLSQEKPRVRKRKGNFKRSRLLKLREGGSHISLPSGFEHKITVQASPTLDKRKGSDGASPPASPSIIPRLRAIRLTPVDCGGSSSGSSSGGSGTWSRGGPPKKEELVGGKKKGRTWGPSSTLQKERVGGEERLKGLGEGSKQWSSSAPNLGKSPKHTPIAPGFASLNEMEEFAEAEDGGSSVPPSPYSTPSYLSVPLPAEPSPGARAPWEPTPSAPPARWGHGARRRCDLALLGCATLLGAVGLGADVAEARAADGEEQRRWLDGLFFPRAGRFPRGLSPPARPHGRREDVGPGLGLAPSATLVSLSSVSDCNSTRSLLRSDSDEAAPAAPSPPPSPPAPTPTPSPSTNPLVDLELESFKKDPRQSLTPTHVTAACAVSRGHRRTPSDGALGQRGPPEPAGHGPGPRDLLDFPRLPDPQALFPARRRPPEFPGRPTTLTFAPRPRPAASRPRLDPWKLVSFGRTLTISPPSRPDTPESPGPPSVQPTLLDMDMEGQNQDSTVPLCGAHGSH
# Chain of Non-receptor tyrosine-protein kinase TYK2 (Homo sapiens) (P29597 whole entry): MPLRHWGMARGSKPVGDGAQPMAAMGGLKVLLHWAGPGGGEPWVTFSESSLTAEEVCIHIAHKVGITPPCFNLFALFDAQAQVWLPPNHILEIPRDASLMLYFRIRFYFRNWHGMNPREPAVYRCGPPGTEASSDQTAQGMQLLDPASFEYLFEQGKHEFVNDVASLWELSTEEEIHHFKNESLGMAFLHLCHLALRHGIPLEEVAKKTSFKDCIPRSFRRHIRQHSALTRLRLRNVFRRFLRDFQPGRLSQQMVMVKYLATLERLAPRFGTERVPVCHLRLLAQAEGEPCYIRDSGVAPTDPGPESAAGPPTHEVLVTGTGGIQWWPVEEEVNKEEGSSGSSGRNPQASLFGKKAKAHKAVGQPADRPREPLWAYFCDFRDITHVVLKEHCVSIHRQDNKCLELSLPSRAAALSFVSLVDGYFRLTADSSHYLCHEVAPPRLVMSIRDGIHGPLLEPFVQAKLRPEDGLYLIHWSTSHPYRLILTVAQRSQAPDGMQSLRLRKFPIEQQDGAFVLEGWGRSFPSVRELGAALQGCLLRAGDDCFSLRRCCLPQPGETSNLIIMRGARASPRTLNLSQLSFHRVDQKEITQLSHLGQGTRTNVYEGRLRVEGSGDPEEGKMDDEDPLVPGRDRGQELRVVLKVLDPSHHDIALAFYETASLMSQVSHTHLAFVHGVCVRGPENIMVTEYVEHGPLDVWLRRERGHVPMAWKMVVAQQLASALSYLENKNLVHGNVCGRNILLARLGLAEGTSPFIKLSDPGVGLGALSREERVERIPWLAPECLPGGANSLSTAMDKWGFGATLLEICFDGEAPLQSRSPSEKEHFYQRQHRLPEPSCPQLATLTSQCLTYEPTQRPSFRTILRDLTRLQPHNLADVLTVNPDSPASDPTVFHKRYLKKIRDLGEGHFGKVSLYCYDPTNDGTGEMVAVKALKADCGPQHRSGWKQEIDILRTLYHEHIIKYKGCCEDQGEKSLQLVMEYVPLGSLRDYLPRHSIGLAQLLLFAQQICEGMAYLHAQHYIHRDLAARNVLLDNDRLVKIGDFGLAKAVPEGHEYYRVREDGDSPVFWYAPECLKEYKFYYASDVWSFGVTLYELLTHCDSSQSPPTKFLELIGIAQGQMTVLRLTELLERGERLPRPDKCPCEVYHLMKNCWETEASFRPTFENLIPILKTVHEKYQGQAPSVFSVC
compound,measurement,setting,value
CCC(=O)N[C@H]1CC[C@@H](C(=O)N(C)c2ccc(-c3nc4ccccc4o3)cc2)C1 [BI 99179],residual activity,[1],58%
same,residual activity,[2],100%
same,residual activity,[3],99%
same,residual activity,[4],100%
same,inhibition,[5],-8.17%
same,residual activity,[6],100%
same,residual activity,[7],100%
same,residual activity,[8],100%
same,residual activity,[9],87%
same,residual activity,[10],98%
same,residual activity,[11],74%
same,residual activity,[12],99%
same,residual activity,[13],100%
same,residual activity,[14],100%
same,residual activity,[15],93%
same,residual activity,[16],100%
same,residual activity,[17],91%
same,residual activity,[18],100%
same,residual activity,[19],76%
same,residual activity,[20],98%
same,residual activity,[21],85%
same,residual activity,[22],91%
same,residual activity,[23],100%
same,residual activity,[24],100%
same,residual activity,[25],98%
same,residual activity,[26],82%
same,residual activity,[27],100%
same,residual activity,[28],83%
same,residual activity,[29],100%
same,residual activity,[30],100%
same,residual activity,[31],74%
same,residual activity,[32],100%
same,inhibition,[33],2.94%
same,residual activity,[34],89%
same,residual activity,[35],78%
same,residual activity,[36],100%
same,residual activity,[37],91%
same,residual activity,[38],89%
same,residual activity,[39],94%
same,inhibition,[40],3.86%
same,residual activity,[41],90%
same,residual activity,[42],80%
same,residual activity,[43],100%
same,residual activity,[44],100%
same,residual activity,[45],70%
CCC(=O)N[C@@H]1CC[C@H](C(=O)N(C)c2ccc(-c3nc4ccccc4o3)cc2)C1 [BI 99990],residual activity,[1],53%
same,residual activity,[2],100%
same,residual activity,[3],100%
same,residual activity,[4],100%
same,inhibition,[5],1.65%
same,residual activity,[6],100%
same,residual activity,[7],100%
same,residual activity,[8],100%
same,residual activity,[9],100%
same,residual activity,[10],100%
same,residual activity,[11],94%
same,residual activity,[12],100%
same,residual activity,[13],100%
same,residual activity,[14],100%
same,residual activity,[15],100%
same,residual activity,[16],46%
same,residual activity,[17],100%
same,residual activity,[18],100%
same,residual activity,[19],88%
same,residual activity,[20],100%
same,residual activity,[21],82%
same,residual activity,[22],78%
same,residual activity,[23],95%
same,residual activity,[24],92%
same,residual activity,[25],100%
same,residual activity,[26],100%
same,residual activity,[27],82%
same,residual activity,[28],100%
same,residual activity,[29],100%
same,residual activity,[30],100%
same,residual activity,[31],89%
same,residual activity,[32],100%
same,inhibition,[33],14.5%
same,residual activity,[34],100%
same,residual activity,[35],100%
same,residual activity,[36],100%
same,residual activity,[37],93%
same,residual activity,[38],100%
same,residual activity,[39],100%
same,inhibition,[40],10.1%
same,residual activity,[41],77%
same,residual activity,[42],100%
same,residual activity,[43],100%
same,residual activity,[44],89%
same,residual activity,[45],100%
